Results on three substances are retold here after patent publication US12729377B2, “RNAi agents and compositions for inhibiting expression of angiopoietin-like 3 (ANGPTL3), and methods of use” (Arrowhead Pharmaceuticals, Inc., priority 2017, dated 2026).

Data set [1] relates to ANGPTL3 gene. Nature of the data set: Example 8: serum LDL in cynomolgus monkeys. Format: in vivo, cynomolgus macaque (Macaca fascicularis). Particulars: 3.0 mg/kg single SC injection day 1, cynos, n=2. The protocol: Additional ANGPTL3 RNAi agents were evaluated in cynomolgus monkeys. On day 1, cynomolgus macaque (Macaca fascicularis) primates (also referred to herein as “cynos”) were administered a single subcutaneous injection of 0.3 mL/kg (approximately 1-2 mL volume, depending on animal mass) containing 3.0 mg/kg of one of ANGPTL3 RNAi agent AD05577, AD05307, AD05488, AD05654, or AD05659, each formulated in saline.
Two (2) cynos in each group were tested (n=2). Blood samples were drawn and serum samples were analyzed on days −8 (pre-dose), 1 (pre-dose), 8, 15, 22, 29, and 36. Cynos were fasted overnight prior to each collection. ANGPTL3 protein levels in serum were measured by ELISA assay (R&D Systems), according to the manufacturer's recommendations. Triglycerides, total cholesterol, high-density lipoprotein (HDL), and low-density lipoprotein (LDL) in serum were measured on a Cobas® Integra 400 (Roche Diagnostics), according to the manufacturer's recommendations.
The ANGPTL3 protein levels, triglyceride levels, total cholesterol levels, HDL levels, and LDL levels for each animal were normalized. For normalization, the level of ANGPTL3 protein, triglyceride, HDL, and total cholesterol, respectively, for each animal at a time point, was divided by the average pre-treatment level of expression in that animal (in this case at days −8, and 1 (pre-dose)) to determine the ratio of expression “normalized to pre-treatment.”

Data set [2] concerns ANGPTL3 protein. As to the kind of experiment: Example 9: serum ANGPTL3 protein by ELISA in cynomolgus monkeys. Particulars: for Average ANGPTL3 Protein Normalized to Pre-Treatment: 2.0 mg/kg single SC injection day 1, cynos, n=3. Format: in vivo, cynomolgus macaque (Macaca fascicularis). The protocol: (§1) Additional ANGPTL3 RNAi agents were evaluated in cynomolgus monkeys. On day 1, cynomolgus macaque (Macaca fascicularis) primates (also referred to herein as “cynos”) were administered a single subcutaneous injection of 0.3 mL/kg (approximately 2-3 mL volume, depending on animal mass) containing 2.0 mg/kg of an ANGPTL3 RNAi agent, which included either AD05488, AD05743, AD05775, or AD05841, each formulated in saline. […] ANGPTL3 RNAi agents AD05488, AD05743, and AD05775 included nucleotide sequences designed to target position 304 of the ANGPTL3 gene. ANGPTL3 RNAi agent AD05841 included nucleotide sequences designed to target position 1035 of the ANGPTL3 gene.
(§2) Three (3) cynos in each group were tested (n=3). Blood samples were drawn and serum samples were analyzed on days −14 (predose), −7 (predose), 1 (pre-dose), 8, 15, 22, 29, and 35. Cynos were fasted overnight prior to each collection. ANGPTL3 protein levels in serum were measured by ELISA assay (R&D Systems), according to the manufacturer's recommendations. Triglycerides, total cholesterol, high-density lipoprotein (HDL), and low-density lipoprotein (LDL) in serum were measured on a Cobas® Integra 400 (Roche Diagnostics), according to the manufacturer's recommendations.
(§3) The ANGPTL3 protein levels, triglyceride levels, total cholesterol levels, HDL levels, and LDL levels for each animal were normalized. For normalization, the level of ANGPTL3 protein, triglyceride, HDL, and total cholesterol, respectively, for each animal at a time point, was divided by the average pre-treatment level of expression in that animal (in this case at days −14, −7, and 1) to determine the ratio of expression “normalized to pre-treatment.”

The test system of data set [3] is ANGPTL3 gene. As to the kind of experiment: Example 9: serum total cholesterol in cynomolgus monkeys. The data set is classed as in vivo, cynomolgus macaque (Macaca fascicularis). Particulars: 2.0 mg/kg single SC injection day 1, cynos, n=3. The protocol: as §1, §2, §3
For data set [4], the system named is ANGPTL3 gene. Nature of the data set: Example 9: serum HDL in cynomolgus monkeys. As to conditions: 2.0 mg/kg single SC injection day 1, cynos, n=3. Format: in vivo, cynomolgus macaque (Macaca fascicularis). The method, then:
as §1, §2, §3

In data set [5] the test system is ANGPTL3 protein. Nature of the data set: Example 2: serum ANGPTL3 protein by ELISA in mice. Format: in vivo, C57bl/6 mice. Particulars: for Avg ANGPTL3 (Average ANGPTL3 Protein Normalized to Pre-Treatment and Control): 3.0 mg/kg single subcutaneous dose on day 1, serum, female C57bl/6 mice. The method, then: To assess the in vivo activity of ANGPTL3 RNAi agents that are designed to target different positions on the ANGPTL3 gene, six- to eight-week-old female C57bl/6 mice were used. Pre-dose serum samples were taken at day −1 after a four hour fast. At day 1, each mouse was given a single subcutaneous administration of 200 μl containing either 3 mg/kg (mpk) of an ANGPTL3 RNAi agent in D5W (dextrose in 5% water), or control (D5W) with no RNAi agent, according to the dosing groups recited in Table 7.
Each of the RNAi agents included a modified sequence and an N-acetyl-galactosamine-containing targeting ligand conjugated to the 5′ terminal end of the sense strand. (See Tables 3, 4, and 5 for modified sequences and targeting ligand structures). The injections were performed between the skin and muscle (i.e. subcutaneous injections) into the loose skin over the neck and shoulder area. Three (3) mice in each group were tested (n=3). Serum was collected on days 8, […], 22, 29, and day 36 (for Groups 1 and 5-11 only). Mice were fasted for four hours prior to each collection. ANGPTL3 protein levels in serum were measured by ELISA assay (R&D Systems), according to the manufacturer's recommendations. Triglycerides, high-density lipoprotein (HDL), and total cholesterol in serum were measured on a Cobas® Integra 400 (Roche Diagnostics), according to the manufacturer's recommendations.
The ANGPTL3 protein levels, triglyceride levels, HDL levels, and total cholesterol levels for each animal were normalized. For normalization, the level of ANGPTL3 protein, triglyceride, HDL, and total cholesterol, respectively, for each animal at a time point, was divided by the pre-treatment level of expression in that animal (in this case at day −1) to determine the ratio of expression “normalized to pre-treatment.” Expression at a specific time point was then normalized to the D5W control group by dividing the “normalized to pre-treatment” ratio for an individual animal by the mean “normalized to pretreatment” ratio of all mice in the D5W control group.
(In general: An ELISA detects its analyte on a solid surface through an enzyme-linked reagent.)

Setting [6] is: day 29, single 3 mg/kg subcutaneous, C57bl/6 mice.

In the oligonucleotide strings, read from the 5' end, every base follows the letter of its sugar. An asterisk marks phosphorothioate; unmarked linkages are phosphodiester. Other units and linkages are bracketed, terminal groups are in braces. A string of capitals states the bases alone. {NAG37} = tridentate N-acetyl-galactosamine targeting ligand, structure (NAG37)s; [invAb] = inverted abasic unit; m = 2'-O-methyl; f = 2'-fluoro

Consider “AD05488: RNAi agent duplex: antisense AM07235-AS, sense AM07234-SS (antisense mU*fA*mC*fUmGfAmUfCmAfAmAfUmAfUmGfUmUfGmAfG*mC; sense {NAG37}*[invAb]*mGmCmUmCmAmAmCmAfUfAfUmUmUmGmAmUmCmAmGmUmA*[invAb])”, for which the “Average LDL Normalized to Pre-Treatment” value is listed as 0.934 in the data set with ANGPTL3 gene [1] (Day 8); 0.926 in the data set on ANGPTL3 gene [1] (Day 15); 0.891 in the data set with ANGPTL3 gene [1] (Day 22); 0.872 with ANGPTL3 gene [1] (Day 29); 0.805 with ANGPTL3 gene [1] (Day 36). Also, the “Average ANGPTL3 Protein Normalized to Pre-Treatment” value is 0.232 with ANGPTL3 protein [2] (Day 8); 0.240 in the data set on ANGPTL3 protein [2] (Day 15); 0.239 in the data set with ANGPTL3 protein [2] (Day 22); 0.258 with ANGPTL3 protein [2] (Day 29); 0.332 in the data set on ANGPTL3 protein [2] (Day 35). The “reduction in ANGPTL3 protein compared to pre-treatment” value with ANGPTL3 protein [2] (each of the measured time points, single 2.0 mg/kg subcutaneous, cynomolgus monkeys) was “reduction”. The “Average Total Cholesterol Normalized to Pre-Treatment” value with ANGPTL3 gene [3] (Day 8) amounted to 0.823; in the data set on ANGPTL3 gene [3] (Day 15), 0.744; in the data set on ANGPTL3 gene [3] (Day 22), 0.709; in the data set on ANGPTL3 gene [3] (Day 29), 0.687; in the data set on ANGPTL3 gene [3] (Day 35) it was 0.659. Besides, the “Average HDL Normalized to Pre-Treatment” value amounted to 0.985 in the data set on ANGPTL3 gene [4] (Day 8); 0.911 in the data set on ANGPTL3 gene [4] (Day 15); 0.849 in the data set with ANGPTL3 gene [4] (Day 22); 0.856 with ANGPTL3 gene [4] (Day 29); 0.810 in the data set on ANGPTL3 gene [4] (Day 35).
For the substance “AD05307: RNAi agent duplex: antisense AM07001-AS, sense AM07000-SS (chain 1 mU*fU*mU*fGmAfAmUfUmAfAmUfGmUfCmCfAmUfGmGmG*mC; chain 2 {NAG37}*[invAb]*mGmCmCmCmAmUmGmGfAfCfAmUmUmAmAmUmUmCmAmAmA*[invAb])”, the “Avg ANGPTL3 (Average ANGPTL3 Protein Normalized to Pre-Treatment and Control)” value with ANGPTL3 protein [5] (Day 8) came to 0.117; in the data set on ANGPTL3 protein [5] (Day 13), 0.120; in the data set with ANGPTL3 protein [5] (Day 22), 0.134; in the data set on ANGPTL3 protein [5] (Day 29) it was 0.206; in the data set on ANGPTL3 protein [5] (Day 36), 0.216. In the data set on ANGPTL3 protein [5] (setting [6]), the “ANGPTL3 protein normalized to pre-treatment and control” value worked out at 0.206. Further, the “Average LDL Normalized to Pre-Treatment” value came to 1.008 in the data set on ANGPTL3 gene [1] (Day 8); 1.102 in the data set on ANGPTL3 gene [1] (Day 15); 0.971 in the data set on ANGPTL3 gene [1] (Day 22); 1.106 in the data set with ANGPTL3 gene [1] (Day 29); 0.894 in the data set with ANGPTL3 gene [1] (Day 36).
Take “AD05308: RNAi agent duplex: antisense AM07003-AS, sense AM07002-SS (chain 1 mU*fG*mU*fUmGfAmAfUmUfAmAfUmGfUmCfCmAfUmGfG*mA; chain 2 {NAG37}*[invAb]*mUmCmCmAmUmGmGmAfCfAfUmUmAmAmUmUmCmAmAmCmA*[invAb])”: the “Avg ANGPTL3 (Average ANGPTL3 Protein Normalized to Pre-Treatment and Control)” value in the data set with ANGPTL3 protein [5] (Day 8) was determined as 0.106; in the data set on ANGPTL3 protein [5] (Day 13), 0.076; with ANGPTL3 protein [5] (Day 22), 0.084; in the data set with ANGPTL3 protein [5] (Day 29) it was 0.088; with ANGPTL3 protein [5] (Day 36), 0.167. In addition, the “ANGPTL3 protein normalized to pre-treatment and control” value in the data set on ANGPTL3 protein [5] (setting [6]) came out at 0.088. In addition, the “reduction in ANGPTL3 protein compared to control” value in the data set with ANGPTL3 protein [5] (setting [6]) is listed as “approximately 91%”.
